Test results published in article PMC2792609, “Effect of methomyl on hepatic mixed function oxidases in rats” (Indian Journal of Pharmacology, 2008).
Where two headings read alike, the source gives them in different places.

Columns and labels:
Serum cholinesterase [1] = molecular target: T1, Serum cholinesterase (Rattus norvegicus, UniProt Q9JKC1); experiment: Serum cholinesterase activity; type: in vivo; details: for depression of acetyl cholinesterase activity: 3 days
T1 construct: from tissue; host or cells: rat serum
T1 sequence (Q9JKC1 24-597): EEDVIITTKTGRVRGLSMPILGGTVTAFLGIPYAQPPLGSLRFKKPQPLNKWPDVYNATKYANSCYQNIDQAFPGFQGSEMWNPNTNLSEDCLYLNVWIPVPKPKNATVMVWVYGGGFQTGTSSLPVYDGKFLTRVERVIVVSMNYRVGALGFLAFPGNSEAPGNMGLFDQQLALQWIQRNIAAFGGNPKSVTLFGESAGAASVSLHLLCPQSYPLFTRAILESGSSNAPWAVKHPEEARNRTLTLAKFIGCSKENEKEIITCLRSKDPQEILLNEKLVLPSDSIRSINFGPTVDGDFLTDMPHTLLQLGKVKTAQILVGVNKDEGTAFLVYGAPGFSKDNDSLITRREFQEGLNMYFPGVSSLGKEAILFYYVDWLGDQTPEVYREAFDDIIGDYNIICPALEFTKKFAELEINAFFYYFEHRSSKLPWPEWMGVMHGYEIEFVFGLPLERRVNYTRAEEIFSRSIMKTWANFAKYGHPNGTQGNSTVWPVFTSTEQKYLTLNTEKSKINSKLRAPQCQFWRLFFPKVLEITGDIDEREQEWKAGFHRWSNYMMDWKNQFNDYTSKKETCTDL
Method: (§1) Adult male rats (weighing 200-230 g) were divided into four groups of six animals each. Group 1 received an equivalent amount of saline and served as control. Animals from group 2, 3, and 4 were given methomyl 1, 2, and 4 mg/kg body weight i.p. respectively, between 8: 00 a.m. and 9:00 a.m., for three consecutive days. In the second set of experiments, adult male rats were divided into four groups. Animals from group 2, 3, and 4 were injected with 4 mg/kg body weight methomyl for one, three, and five successive days. The volume injected into the rats of body weight 200 g was 1 ml. […]
(§2) Alanine aminotransferase and aspartate aminotransferase activity was measured using the Reitman and Frankel[12] method. Alkaline phosphatase activity was measured using Span diagnostic kits.[13] Cholinesterase activity was measured using the kinetic test method of Knedel et al.[14]

Cytochrome c reductase = experiment: Hepatic microsomal cytochrome c reductase activity; type: in vivo, rat
Method: (§3) Adult male rats (weighing 200-230 g) were divided into four groups of six animals each. Group 1 received an equivalent amount of saline and served as control. Animals from group 2, 3, and 4 were given methomyl 1, 2, and 4 mg/kg body weight i.p. respectively, between 8: 00 a.m. and 9:00 a.m., for three consecutive days. In the second set of experiments, adult male rats were divided into four groups. Animals from group 2, 3, and 4 were injected with 4 mg/kg body weight methomyl for one, three, and five successive days. The volume injected into the rats of body weight 200 g was 1 ml. In another experiment, adult female rats and old male rats (weighing 350-450 g, 8 months old) were divided into two groups of six animals each. Group 2 of each category received methomyl (4 mg/kg body weight, i.p., for three successive days), and group 1 of each category received an equivalent amount of saline and served as the control group.
(§4) The rats were sacrificed by cervical dislocation, 24 hours after the last dose. Their livers were perfused in situ with ice cold 1.15% KCl containing 0.05 mM EDTA, rapidly excised, blotted dry, weighed, minced and homogenized with two volumes of ice cold 0.25 M sucrose solution, in a Potter-Elvehjem type homogenizer. The homogenate was centrifuged at 10,000 × g for 10 min, in a refrigerated centrifuge (REMI C-24). The microsomes were isolated by the procedure described by of Cinti et al.[4] The microsomal pellet was suspended in phosphate buffer (0.1 M, pH 7.4) and the suspension was used for the microsomal enzyme assays. Microsomal protein content was measured by the Biuret method, using bovine serum albumin as the standard.[5]
(§5) The microsomal electron transport components (cytochrome P450 and cytochrome b5) were determined using Hitachi UV-Visible double beam recording spectrophotometer, by the procedure of Omura and Sato.[67] Cytochrome c reductase activity was determined using the method recommended by Masters et al.[8] Aminopyrine N-demethylase activity was assayed according to the procedure described by Schenkman et al.[9] Formaldehyde liberated during N-demethylation was estimated by the procedure described by Nash.[10] Aniline hydroxylase assay was performed using the procedure reported by Govindwar and Dalvi.[11]

microsomal protein = type: in vivo, rat; details: for decrease in hepatic microsomal protein content: 3 days, vs control
Method: as §3, §4

plasma ChE = details: methomyl aerosol, male rats, repeated inhalation; cited from earlier work
[2] = test system: aspartate aminotransferase (SGOT); experiment: Serum aspartate aminotransferase (SGOT) activity; type: in vivo, rat; details: for Increased activity of aspartate aminotransferase: 3 days
Method: as §1, §2

[3] = test system: alanine aminotransferase (SGPT); experiment: Serum alanine aminotransferase (SGPT) activity; type: in vivo, rat; details: female rats; for SGPT: for 3 days
Aniline hydroxylase = experiment: Hepatic microsomal aniline hydroxylase activity; type: in vivo, rat; details: for decrease in the activity of aniline hydroxylase / decrease in activity of aniline hydroxylase: vs control
Method: as §3, §4, §5

[4] = classification; cited from earlier work
[5] = test system: aspartate aminotransferase (SGOT); experiment: Serum aspartate aminotransferase (SGOT) activity; type: in vivo, rat; details: female rats; for SGOT: for 3 days
[6] = test system: alanine aminotransferase (SGPT); experiment: Serum alanine aminotransferase (SGPT) activity; type: in vivo, rat; details: for Increased activity of alanine aminotransferase: 3 days
Method: as §1, §2

Serum cholinesterase [7] = molecular target: T1, Serum cholinesterase; experiment: Serum cholinesterase activity; type: in vivo; details: female rats; for Serum cholinesterase: for 3 days; for depression of acetyl cholinesterase activity: 3 days
[8] = female rats, 4 mg/kg body weight i.p., for 3 days
[9] = male rats, 1 mg/kg body weight i.p., for three days
[10] = male rats, 2 mg/kg body weight i.p., for three days
[11] = male rats, 4 mg/kg body weight i.p., for three days
[12] = adult female rats, 4 mg/kg body weight, i.p., three days
[13] = adult male rats, 1 mg/kg i.p., for 3 days
[14] = adult male rats, 2 mg/kg i.p., for 3 days
[15] = adult male rats, 4 mg/kg i.p., for 3 days
[16] = adult male rats, 4 mg/kg i.p., one, three and five days
[17] = adult rats, 4 mg/kg i.p., 1 day of treatment
[18] = adult rats, 4 mg/kg i.p., 3 days of treatment
[19] = adult rats, 4 mg/kg i.p., 5 days of treatment
[20] = old male rats, 4 mg/kg body weight, i.p., three days

SMILES: CNC(=O)ON=C(C)SC [methomyl, S-methyl-N-(methyl carbomyl)-thioacetimidate]
- Serum cholinesterase (Serum cholinesterase [1]; [8]): 844 u/l
- depression of acetyl cholinesterase activity (Serum cholinesterase [1]; female rats, 4 mg/kg i.p.): 66%
- Serum cholinesterase (Serum cholinesterase [1]; [9]): 1120 u/l
- depression of acetyl cholinesterase activity (Serum cholinesterase [1]; male rats, 1 mg/kg i.p.): 15%
- Serum cholinesterase (Serum cholinesterase [1]; [10]): 949 u/l
- depression of acetyl cholinesterase activity (Serum cholinesterase [1]; male rats, 2 mg/kg i.p.): 28%
- Serum cholinesterase (Serum cholinesterase [1]; [11]): 848 u/l
- depression of acetyl cholinesterase activity (Serum cholinesterase [1]; male rats, 4 mg/kg i.p.): 35%
- decrease in the activity of cytochrome c reductase (Cytochrome c reductase; adult female rat, 4 mg/kg i.p., three days, vs control): 42%
- Cytochrome c reductase (Cytochrome c reductase; [12]): 23.07 nmole of cytochrome c reduced/min/mg microsomal protein
- Cytochrome c reductase (Cytochrome c reductase; [13]): 35.73 nmole of cytochrome c reduced/min/mg microsomal protein
- Cytochrome c reductase (Cytochrome c reductase; [14]): 32.80 nmole of cytochrome c reduced/min/mg microsomal protein
- increase in cytochrome c reductase activity (Cytochrome c reductase; adult male rats, 4 mg/kg i.p., 3 days, vs control): 14%
- Cytochrome c reductase (Cytochrome c reductase; [15]): 36.93 nmole of cytochrome c reduced/min/mg microsomal protein
- change in the activity of cytochrome c reductase (Cytochrome c reductase; [16]): No significant change
- Cytochrome c reductase (Cytochrome c reductase; [17]): 31.3 nmole of cytochrome c reduced/min/mg microsomal protein
- Cytochrome c reductase (Cytochrome c reductase; [18]): 26.7 nmole of cytochrome c reduced/min/mg microsomal protein
- Cytochrome c reductase (Cytochrome c reductase; [19]): 24.2 nmole of cytochrome c reduced/min/mg microsomal protein
- decrease in cytochrome c reductase (Cytochrome c reductase; old male rat, 4 mg/kg i.p., three days, vs control): 7%
- Cytochrome c reductase (Cytochrome c reductase; [20]): 33.30 nmole of cytochrome c reduced/min/mg microsomal protein
- Microsomal protein (microsomal protein; [12]): 10.90 mg/g liver
- decrease in hepatic microsomal protein content (microsomal protein; adult male rats, 1 mg/kg i.p.): 28%
- Microsomal protein (microsomal protein; [13]): 13.53 mg/g liver
- decrease in hepatic microsomal protein content (microsomal protein; adult male rats, 2 mg/kg i.p.): 31%
- Microsomal protein (microsomal protein; [14]): 12.83 mg/g liver
- decrease in hepatic microsomal protein content (microsomal protein; adult male rats, 4 mg/kg i.p.): 19%
- Microsomal protein (microsomal protein; [15]): 15.10 mg/g liver
- change in microsomal protein (microsomal protein; [16]): No significant change
- Microsomal protein (microsomal protein; [17]): 15.77 mg/g liver
- Microsomal protein (microsomal protein; [18]): 16.00 mg/g liver
- Microsomal protein (microsomal protein; [19]): 12.20 mg/g liver
- Microsomal protein (microsomal protein; [20]): 18.80 mg/g liver
- effect on plasma ChE (plasma ChE): marked suppression
- SGOT [2, 8]: 51.0 u/l
- Increased activity of aspartate aminotransferase ([2]; female rats, 4 mg/kg i.p.): 39%
- SGOT [2, 9]: 35.7 u/l
- SGOT [2, 10]: 37.9 u/l
- Increased activity of aspartate aminotransferase ([2]; male rats, 2 mg/kg i.p.): 9%
- SGOT [2, 11]: 40.9 u/l
- Increased activity of aspartate aminotransferase ([2]; male rats, 4 mg/kg i.p.): 8%
- SGPT ([3]; 1 mg/kg body weight i.p.): 43.0 u/l
- SGPT ([3]; 2 mg/kg body weight i.p.): 46.0 u/l
- Increased activity of alanine aminotransferase ([3]; 2 mg/kg i.p., 3 days): 14%
- decrease in the activity of aniline hydroxylase (Aniline hydroxylase; adult female rat, 4 mg/kg i.p., three days): 43%
- Aniline hydroxylase (Aniline hydroxylase; [12]): 0.45 nmole of p-aminophenol formed/min/mg/microsomal protein
- Aniline hydroxylase (Aniline hydroxylase; [13]): 1.35 nmole of p-aminophenol formed/min/mg microsomalprotein
- Aniline hydroxylase (Aniline hydroxylase; [14]): 1.17 nmole of p-aminophenol formed/min/mg microsomalprotein
- decrease in the activity of aniline hydroxylase (Aniline hydroxylase; adult male rats, 4 mg/kg i.p., 3 days): 27%
- decrease in activity of aniline hydroxylase (Aniline hydroxylase; adult male rats, 4 mg/kg i.p., five days): 17%
- Aniline hydroxylase (Aniline hydroxylase; [15]): 0.80 nmole of p-aminophenol formed/min/mg microsomalprotein
- decrease in activity of aniline hydroxylase (Aniline hydroxylase; adult male rats, 4 mg/kg i.p., one day): 47%
- decrease in activity of aniline hydroxylase (Aniline hydroxylase; adult male rats, 4 mg/kg i.p., three days): 71%
- Aniline hydroxylase (Aniline hydroxylase; [17]): 0.60 nmole of p-aminophenol formed/min/mg/microsomal protein
- Aniline hydroxylase (Aniline hydroxylase; [18]): 0.33 nmole of p-aminophenol formed/min/mg/microsomal protein
- Aniline hydroxylase (Aniline hydroxylase; [19]): 0.93 nmole of p-aminophenol formed/min/mg/microsomal protein
- Aniline hydroxylase (Aniline hydroxylase; [20]): 1.80 nmole of p-aminophenol formed/min/mg/microsomal protein
- pesticide toxicity category [4]: category-1
- SGOT ([5]; 1 mg/kg body weight i.p.): 43.5 u/l
- SGOT ([5]; 2 mg/kg body weight i.p.): 46.6 u/l
- Increased activity of aspartate aminotransferase ([5]; 2 mg/kg i.p., 3 days): 26%
- SGPT [6, 8]: 50.0 u/l
- Increased activity of alanine aminotransferase ([6]; female rats, 4 mg/kg i.p.): 24%
- SGPT [6, 9]: 47.3 u/l
- SGPT [6, 10]: 50.0 u/l
- Increased activity of alanine aminotransferase ([6]; male rats, 2 mg/kg i.p.): 12%
- SGPT [6, 11]: 53.6 u/l
- Increased activity of alanine aminotransferase ([6]; male rats, 4 mg/kg i.p.): 20%
- Serum cholinesterase (Serum cholinesterase [7]; 1 mg/kg body weight i.p.): 1343 u/l
- depression of acetyl cholinesterase activity (Serum cholinesterase [7]; 1 mg/kg i.p.): 46%
- Serum cholinesterase (Serum cholinesterase [7]; 2 mg/kg body weight i.p.): 1193 u/l
- depression of acetyl cholinesterase activity (Serum cholinesterase [7]; 2 mg/kg i.p.): 52%
